Experimental findings from ChEMBL document CHEMBL1142050, “A two-state homology model of the hERG K+ channel: application to ligand binding” (Bioorg Med Chem Lett, 2005) are described below.

For assay [1], the target named is T1, Voltage-gated inwardly rectifying potassium channel KCNH2 (Homo sapiens, UniProt Q12809). Briefly: Inhibition of human voltage-gated potassium channel subunit Kv11.1 (ERG K+ channel) in open state. It counts as functional.
For assay [2], the target named is T1, Voltage-gated inwardly rectifying potassium channel KCNH2. Briefly: Inhibition of partially open human voltage-gated potassium channel subunit Kv11.1 (ERG K+ channel).

T1 sequence (Q12809 whole entry): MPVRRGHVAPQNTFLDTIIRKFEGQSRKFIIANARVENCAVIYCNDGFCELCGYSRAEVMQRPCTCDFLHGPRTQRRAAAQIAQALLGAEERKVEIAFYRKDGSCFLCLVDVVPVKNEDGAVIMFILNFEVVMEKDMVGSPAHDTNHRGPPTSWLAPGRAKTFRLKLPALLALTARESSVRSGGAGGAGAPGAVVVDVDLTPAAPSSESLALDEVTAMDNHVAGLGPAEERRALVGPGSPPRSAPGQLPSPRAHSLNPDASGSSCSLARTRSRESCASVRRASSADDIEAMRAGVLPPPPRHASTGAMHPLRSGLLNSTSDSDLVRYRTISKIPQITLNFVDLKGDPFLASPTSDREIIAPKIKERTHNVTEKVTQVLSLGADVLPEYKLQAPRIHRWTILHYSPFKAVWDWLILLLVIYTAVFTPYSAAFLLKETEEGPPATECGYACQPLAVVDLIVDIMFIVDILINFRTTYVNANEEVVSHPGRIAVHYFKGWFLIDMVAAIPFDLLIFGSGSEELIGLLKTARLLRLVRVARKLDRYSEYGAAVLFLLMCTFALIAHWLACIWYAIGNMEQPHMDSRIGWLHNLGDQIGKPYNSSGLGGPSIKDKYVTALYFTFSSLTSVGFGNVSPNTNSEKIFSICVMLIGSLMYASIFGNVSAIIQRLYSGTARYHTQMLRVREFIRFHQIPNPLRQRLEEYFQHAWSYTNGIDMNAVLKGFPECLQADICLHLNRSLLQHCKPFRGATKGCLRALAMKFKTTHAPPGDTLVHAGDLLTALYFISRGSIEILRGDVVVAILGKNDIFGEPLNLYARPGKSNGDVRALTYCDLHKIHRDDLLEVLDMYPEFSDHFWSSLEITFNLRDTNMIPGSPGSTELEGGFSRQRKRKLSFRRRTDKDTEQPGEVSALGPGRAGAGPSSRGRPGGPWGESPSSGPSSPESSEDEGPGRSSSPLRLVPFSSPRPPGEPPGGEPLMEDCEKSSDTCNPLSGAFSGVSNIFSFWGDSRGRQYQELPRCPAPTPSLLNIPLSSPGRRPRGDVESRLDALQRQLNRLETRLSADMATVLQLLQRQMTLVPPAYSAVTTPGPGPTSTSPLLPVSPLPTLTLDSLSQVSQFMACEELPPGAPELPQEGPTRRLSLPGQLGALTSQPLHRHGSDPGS

One may read the IC50 as the concentration that gives 50% inhibition. Low values mean greater potency, high ones weaker potency. As for `C[C@@H]1CN(c2c(F)c(N)c3c(=O)c(C(=O)O)cn(C4CC4)c3c2F)C[C@H](C)N1` [SPARFLOXACIN], in assay [1], the IC50 is 26300 nM. Compound `CN(c1nccc(=O)[nH]1)C1CCN(c2nc3ccccc3n2Cc2ccc(F)cc2)CC1` [MIZOLASTINE] showed an IC50 in assay [2] of 355 nM. This lies in the sub-micromolar range. Consider `CN1CCN(CCCCN2C(=O)CN(/N=C/c3ccc(-c4ccc(Cl)cc4)o3)C2=O)CC1`, for which, in assay [1], the IC50 is 562 nM.
